Square brackets hold non-standard residues; d marks the D form. Peptide text beside a SMILES is read from it. * marks the point of attachment. X1 = C=CCOC(=O)[C@]12CC[C@@H](C(=C)C)[C@@H]1[C@H]1CC[C@@H]3[C@@]4(C)CC[C@H](OC(=O)CCc5cn(CC(=O)*)nn5)C(C)(C)[C@@H]4CC[C@@]3(C)[C@]1(C)CC2; X9 = C=CCOC(=O)[C@]12CC[C@@H](C)[C@H](C)[C@H]1C1=CC[C@@H]3[C@@]4(C)CC[C@H](OC(=O)CCc5cn(CC(=O)*)nn5)C(C)(C)[C@@H]4CC[C@@]3(C)[C@]1(C)CC2; X3 = C=C(C)[C@@H]1CC[C@]2(C(=O)O)CC[C@]3(C)[C@H](CC[C@@H]4[C@@]5(C)CC[C@H](OC(=O)CCc6cn(CC(=O)*)nn6)C(C)(C)[C@@H]5CC[C@]43C)[C@@H]12; X5 = C=C(C)[C@@H]1CC[C@]2(C(=O)OCc3cn(CC(=O)*)nn3)CC[C@]3(C)[C@H](CC[C@@H]4[C@@]5(C)CC[C@H](OC(C)=O)C(C)(C)[C@@H]5CC[C@]43C)[C@@H]12; X2 = C=CCOC(=O)[C@]12CCC(C)(C)C[C@H]1C1=CC[C@@H]3[C@@]4(C)CC[C@H](OC(=O)CCc5cn(CC(=O)*)nn5)C(C)(C)[C@@H]4CC[C@@]3(C)[C@]1(C)CC2; X4 = C=C(C)[C@@H]1CC[C@]2(C(=O)OCc3cn(CC(=O)*)nn3)CC[C@]3(C)[C@H](CC[C@@H]4[C@@]5(C)CC[C@H](O)C(C)(C)[C@@H]5CC[C@]43C)[C@@H]12; X11 = CCCc1cn(CC(=O)*)nn1; βAla = NCCC(=O)O
Test: Inhibition of HIV1 gp41-induced cell-cell fusion between viral envelope expressing human HL2/3 cells to CD4/CCR5 receptor expressing TZM-bl cells after 6 to 8 hrs by luciferase assay

Row | Compound | EC50 [µM]
1 | C=C(C)[C@@H]1CC[C@]2(C(=O)O)CC[C@]3(C)[C@H](CC[C@@H]4[C@@]5(C)CC[C@H](O)C(C)(C)[C@@H]5CC[C@]43C)[C@@H]12 | > 100
2 | CC[C@H](C)[C@H](NC(=O)[C@H](CC(C)C)NC(=O)[C@H](CO)NC(=O)[C@H](Cc1cnc[nH]1)NC(=O)[C@@H](NC(=O)[C@H](CC(C)C)NC(=O)[C@H](CO)NC(=O)[C@@H](NC(=O)[C@H](Cc1ccc(O)cc1)NC(=O)[C@H](CC(N)=O)NC(=O)[C@H](CC(N)=O)NC(C)=O)[C@@H](C)O)[C@@H](C)CC)C(=O)N[C@@H](CCC(=O)O)C(=O)N[C@@H](CCC(=O)O)C(=O)N[C@@H](CO)C(=O)N[C@@H](CCC(N)=O)C(=O)N[C@@H](CC(N)=O)C(=O)N[C@@H](CCC(N)=O)C(=O)N[C@@H](CCC(N)=O)C(=O)N[C@@H](CCC(=O)O)C(=O)N[C@@H](CCCCN)C(=O)N[C@@H](CC(N)=O)C(=O)N[C@@H](CCC(=O)O)C(=O)N[C@@H](CCC(N)=O)C(=O)N[C@@H](CCC(=O)O)C(=O)N[C@@H](CC(C)C)C(=O)N[C@@H](CC(C)C)C(N)=O (Ac-NNYTSLIHSLIEESQNQQEKNEQELL-NH2) | 3.24
3 | C=CCOC(=O)[C@]12CCC(C)(C)C[C@H]1C1=CC[C@@H]3[C@@]4(C)CC[C@H](OC(=O)CCc5cn(CC(=O)NCCCC[C@H](NC(=O)CCNC(=O)[C@H](CC(C)C)NC(=O)[C@H](CC(C)C)NC(=O)[C@H](CCC(=O)O)NC(=O)[C@H](CCC(N)=O)NC(=O)[C@H](CCC(=O)O)NC(=O)[C@H](CC(N)=O)NC(=O)[C@H](CCCCN)NC(=O)[C@H](CCC(=O)O)NC(=O)[C@H](CCC(N)=O)NC(=O)[C@H](CCC(N)=O)NC(=O)[C@H](CC(N)=O)NC(=O)[C@H](CCC(N)=O)NC(=O)[C@H](CO)NC(=O)[C@H](CCC(=O)O)NC(=O)[C@H](CCC(=O)O)NC(=O)[C@@H](NC(=O)[C@H](CC(C)C)NC(=O)[C@H](CO)NC(=O)[C@H](Cc6cnc[nH]6)NC(=O)[C@@H](NC(=O)[C@H](CC(C)C)NC(=O)[C@H](CO)NC(=O)[C@@H](NC(=O)[C@H](Cc6ccc(O)cc6)NC(=O)[C@H](CC(N)=O)NC(=O)[C@H](CC(N)=O)NC(C)=O)[C@@H](C)O)[C@@H](C)CC)[C@@H](C)CC)C(N)=O)nn5)C(C)(C)[C@@H]4CC[C@@]3(C)[C@]1(C)CC2 (Ac-NNYTSLIHSLIEESQNQQEKNEQELL[βAla]K(X2)-NH2) | 0.0033
4 | C=C(C)[C@@H]1CC[C@]2(C(=O)O)CC[C@]3(C)[C@H](CC[C@@H]4[C@@]5(C)CC[C@H](OC(=O)CCc6cn(CC(=O)NCCCC[C@H](NC(=O)CCNC(=O)[C@H](CC(C)C)NC(=O)[C@H](CC(C)C)NC(=O)[C@H](CCC(=O)O)NC(=O)[C@H](CCC(N)=O)NC(=O)[C@H](CCC(=O)O)NC(=O)[C@H](CC(N)=O)NC(=O)[C@H](CCCCN)NC(=O)[C@H](CCC(=O)O)NC(=O)[C@H](CCC(N)=O)NC(=O)[C@H](CCC(N)=O)NC(=O)[C@H](CC(N)=O)NC(=O)[C@H](CCC(N)=O)NC(=O)[C@H](CO)NC(=O)[C@H](CCC(=O)O)NC(=O)[C@H](CCC(=O)O)NC(=O)[C@@H](NC(=O)[C@H](CC(C)C)NC(=O)[C@H](CO)NC(=O)[C@H](Cc7cnc[nH]7)NC(=O)[C@@H](NC(=O)[C@H](CC(C)C)NC(=O)[C@H](CO)NC(=O)[C@@H](NC(=O)[C@H](Cc7ccc(O)cc7)NC(=O)[C@H](CC(N)=O)NC(=O)[C@H](CC(N)=O)NC(C)=O)[C@@H](C)O)[C@@H](C)CC)[C@@H](C)CC)C(N)=O)nn6)C(C)(C)[C@@H]5CC[C@]43C)[C@@H]12 (Ac-NNYTSLIHSLIEESQNQQEKNEQELL[βAla]K(X3)-NH2) | 0.044
5 | C=C(C)[C@@H]1CC[C@]2(C(=O)OCc3cn(CC(=O)NCCCC[C@H](NC(=O)CCNC(=O)[C@H](CC(C)C)NC(=O)[C@H](CC(C)C)NC(=O)[C@H](CCC(=O)O)NC(=O)[C@H](CCC(N)=O)NC(=O)[C@H](CCC(=O)O)NC(=O)[C@H](CC(N)=O)NC(=O)[C@H](CCCCN)NC(=O)[C@H](CCC(=O)O)NC(=O)[C@H](CCC(N)=O)NC(=O)[C@H](CCC(N)=O)NC(=O)[C@H](CC(N)=O)NC(=O)[C@H](CCC(N)=O)NC(=O)[C@H](CO)NC(=O)[C@H](CCC(=O)O)NC(=O)[C@H](CCC(=O)O)NC(=O)[C@@H](NC(=O)[C@H](CC(C)C)NC(=O)[C@H](CO)NC(=O)[C@H](Cc4cnc[nH]4)NC(=O)[C@@H](NC(=O)[C@H](CC(C)C)NC(=O)[C@H](CO)NC(=O)[C@@H](NC(=O)[C@H](Cc4ccc(O)cc4)NC(=O)[C@H](CC(N)=O)NC(=O)[C@H](CC(N)=O)NC(C)=O)[C@@H](C)O)[C@@H](C)CC)[C@@H](C)CC)C(N)=O)nn3)CC[C@]3(C)[C@H](CC[C@@H]4[C@@]5(C)CC[C@H](O)C(C)(C)[C@@H]5CC[C@]43C)[C@@H]12 (Ac-NNYTSLIHSLIEESQNQQEKNEQELL[βAla]K(X4)-NH2) | 0.02
6 | C=C(C)[C@@H]1CC[C@]2(C(=O)OCc3cn(CC(=O)NCCCC[C@H](NC(=O)CCNC(=O)[C@H](CC(C)C)NC(=O)[C@H](CC(C)C)NC(=O)[C@H](CCC(=O)O)NC(=O)[C@H](CCC(N)=O)NC(=O)[C@H](CCC(=O)O)NC(=O)[C@H](CC(N)=O)NC(=O)[C@H](CCCCN)NC(=O)[C@H](CCC(=O)O)NC(=O)[C@H](CCC(N)=O)NC(=O)[C@H](CCC(N)=O)NC(=O)[C@H](CC(N)=O)NC(=O)[C@H](CCC(N)=O)NC(=O)[C@H](CO)NC(=O)[C@H](CCC(=O)O)NC(=O)[C@H](CCC(=O)O)NC(=O)[C@@H](NC(=O)[C@H](CC(C)C)NC(=O)[C@H](CO)NC(=O)[C@H](Cc4cnc[nH]4)NC(=O)[C@@H](NC(=O)[C@H](CC(C)C)NC(=O)[C@H](CO)NC(=O)[C@@H](NC(=O)[C@H](Cc4ccc(O)cc4)NC(=O)[C@H](CC(N)=O)NC(=O)[C@H](CC(N)=O)NC(C)=O)[C@@H](C)O)[C@@H](C)CC)[C@@H](C)CC)C(N)=O)nn3)CC[C@]3(C)[C@H](CC[C@@H]4[C@@]5(C)CC[C@H](OC(C)=O)C(C)(C)[C@@H]5CC[C@]43C)[C@@H]12 (Ac-NNYTSLIHSLIEESQNQQEKNEQELL[βAla]K(X5)-NH2) | 0.0079
7 | C=CCOC(=O)[C@]12CC[C@@H](C)[C@H](C)[C@H]1C1=CC[C@@H]3[C@@]4(C)CC[C@H](OC(=O)CCc5cn(CC(=O)NCCCC[C@H](NC(=O)CCNC(=O)[C@H](CC(C)C)NC(=O)[C@H](CC(C)C)NC(=O)[C@H](CCC(=O)O)NC(=O)[C@H](CCC(N)=O)NC(=O)[C@H](CCC(=O)O)NC(=O)[C@H](CC(N)=O)NC(=O)[C@H](CCCCN)NC(=O)[C@H](CCC(=O)O)NC(=O)[C@H](CCC(N)=O)NC(=O)[C@H](CCC(N)=O)NC(=O)[C@H](CC(N)=O)NC(=O)[C@H](CCC(N)=O)NC(=O)[C@H](CO)NC(=O)[C@H](CCC(=O)O)NC(=O)[C@H](CCC(=O)O)NC(=O)[C@@H](NC(=O)[C@H](CC(C)C)NC(=O)[C@H](CO)NC(=O)[C@H](Cc6cnc[nH]6)NC(=O)[C@@H](NC(=O)[C@H](CC(C)C)NC(=O)[C@H](CO)NC(=O)[C@@H](NC(=O)[C@H](Cc6ccc(O)cc6)NC(=O)[C@H](CC(N)=O)NC(=O)[C@H](CC(N)=O)NC(C)=O)[C@@H](C)O)[C@@H](C)CC)[C@@H](C)CC)C(N)=O)nn5)C(C)(C)[C@@H]4CC[C@@]3(C)[C@]1(C)CC2 (Ac-NNYTSLIHSLIEESQNQQEKNEQELL[βAla]K(X9)-NH2) | 0.0034
8 | CCCc1cn(CC(=O)NCCCC[C@H](NC(=O)CCNC(=O)[C@H](CC(C)C)NC(=O)[C@H](CC(C)C)NC(=O)[C@H](CCC(=O)O)NC(=O)[C@H](CCC(N)=O)NC(=O)[C@H](CCC(=O)O)NC(=O)[C@H](CC(N)=O)NC(=O)[C@H](CCCCN)NC(=O)[C@H](CCC(=O)O)NC(=O)[C@H](CCC(N)=O)NC(=O)[C@H](CCC(N)=O)NC(=O)[C@H](CC(N)=O)NC(=O)[C@H](CCC(N)=O)NC(=O)[C@H](CO)NC(=O)[C@H](CCC(=O)O)NC(=O)[C@H](CCC(=O)O)NC(=O)[C@@H](NC(=O)[C@H](CC(C)C)NC(=O)[C@H](CO)NC(=O)[C@H](Cc2cnc[nH]2)NC(=O)[C@@H](NC(=O)[C@H](CC(C)C)NC(=O)[C@H](CO)NC(=O)[C@@H](NC(=O)[C@H](Cc2ccc(O)cc2)NC(=O)[C@H](CC(N)=O)NC(=O)[C@H](CC(N)=O)NC(C)=O)[C@@H](C)O)[C@@H](C)CC)[C@@H](C)CC)C(N)=O)nn1 (Ac-NNYTSLIHSLIEESQNQQEKNEQELL[βAla]K(X11)-NH2) | 2.18
9 | C=CCOC(=O)[C@]12CC[C@@H](C(=C)C)[C@@H]1[C@H]1CC[C@@H]3[C@@]4(C)CC[C@H](OC(=O)CCc5cn(CC(=O)NCCC(=O)N[C@@H](CC(N)=O)C(=O)N[C@@H](CC(N)=O)C(=O)N[C@@H](Cc6ccc(O)cc6)C(=O)N[C@H](C(=O)N[C@@H](CO)C(=O)N[C@@H](CC(C)C)C(=O)N[C@H](C(=O)N[C@@H](Cc6cnc[nH]6)C(=O)N[C@@H](CO)C(=O)N[C@@H](CC(C)C)C(=O)N[C@H](C(=O)N[C@@H](CCC(=O)O)C(=O)N[C@@H](CCC(=O)O)C(=O)N[C@@H](CO)C(=O)N[C@@H](CCC(N)=O)C(=O)N[C@@H](CC(N)=O)C(=O)N[C@@H](CCC(N)=O)C(=O)N[C@@H](CCC(N)=O)C(=O)N[C@@H](CCC(=O)O)C(=O)N[C@@H](CCCCN)C(=O)N[C@@H](CC(N)=O)C(=O)N[C@@H](CCC(=O)O)C(=O)N[C@@H](CCC(N)=O)C(=O)N[C@@H](CCC(=O)O)C(=O)N[C@@H](CC(C)C)C(=O)N[C@@H](CC(C)C)C(N)=O)[C@@H](C)CC)[C@@H](C)CC)[C@@H](C)O)nn5)C(C)(C)[C@@H]4CC[C@@]3(C)[C@]1(C)CC2 ({X1-βAla}-NNYTSLIHSLIEESQNQQEKNEQELL-NH2) | 0.197
10 | C=C(C)[C@@H]1CC[C@]2(C(=O)O)CC[C@]3(C)[C@H](CC[C@@H]4[C@@]5(C)CC[C@H](OC(=O)CCc6cn(CC(=O)NCCC(=O)N[C@@H](CC(N)=O)C(=O)N[C@@H](CC(N)=O)C(=O)N[C@@H](Cc7ccc(O)cc7)C(=O)N[C@H](C(=O)N[C@@H](CO)C(=O)N[C@@H](CC(C)C)C(=O)N[C@H](C(=O)N[C@@H](Cc7cnc[nH]7)C(=O)N[C@@H](CO)C(=O)N[C@@H](CC(C)C)C(=O)N[C@H](C(=O)N[C@@H](CCC(=O)O)C(=O)N[C@@H](CCC(=O)O)C(=O)N[C@@H](CO)C(=O)N[C@@H](CCC(N)=O)C(=O)N[C@@H](CC(N)=O)C(=O)N[C@@H](CCC(N)=O)C(=O)N[C@@H](CCC(N)=O)C(=O)N[C@@H](CCC(=O)O)C(=O)N[C@@H](CCCCN)C(=O)N[C@@H](CC(N)=O)C(=O)N[C@@H](CCC(=O)O)C(=O)N[C@@H](CCC(N)=O)C(=O)N[C@@H](CCC(=O)O)C(=O)N[C@@H](CC(C)C)C(=O)N[C@@H](CC(C)C)C(N)=O)[C@@H](C)CC)[C@@H](C)CC)[C@@H](C)O)nn6)C(C)(C)[C@@H]5CC[C@]43C)[C@@H]12 ({X3-βAla}-NNYTSLIHSLIEESQNQQEKNEQELL-NH2) | 0.015
